The subject of one test is A549, HepG2, MCF-7. Nature of the test: MTT anti-proliferative assay, stated for all three tumor cell lines together. It counts as cell-based, human. To be noted: three tested cell lines. An excerpt: (§1) The anti-proliferative activities of 3a–k against human lung cancer cell line (A549), human hepatoma cell line (HepG2), and human breast cancer cell line (MCF-7) were examined. With lupeol and cisplatin as positive controls, the MTT assay was used to evaluate the anti-proliferative activity of all of the synthesized compounds in vitro.
(§2) The MTT (Beyotime, Shanghai, China) colorimetric method was used to test the antitumor activity of the synthetic products. The test compound and the control compound were prepared into the liquid with a concentration of 1, 5, 10, 20, and 40 μmol/L, respectively. The tested tumor cells (A549, HepG2, MCF-7) (Chinese Academy of Sciences, Shanghai, China) were inoculated into 96 well plates with a density of 2 × 10^4 cells/mL, and 90 μL PBS was injected into each well. The 96 well plates were cultured overnight in an incubator, and each well was injected with the same concentration of 10 μL of the test compound. After 48 h, 10 μL of MTT solution was injected into each well. After culture for 4 h, the plates were turned upside down and 100 μL DMSO (Kermel, Tianjin, China) was added. The optical density (OD) values of the compound and the control product were determined at 490 nm wavelength with enzyme-labeled apparatus.
A general note: Formazan colour is commonly taken as a measure of viable cells.

Test [1] has as its system HepG2 cells. Nature of the test: AO/EB double staining, cell morphology. The class given is cell-based, human. To be noted: HepG2, 48 h, 2, 4 and 8 μmol/L. Here is the method: The apoptotic morphological alterations induced by compound 3k·CH3I in HepG2 cells were scrutinized after a 48-h treatment using the acridine orange/ethidium bromide (AO/EB) double staining method, as depicted in Figure 6.
In this study, human hepatoma HepG2 cells were treated with compound 3k·CH3I, and the tested cells were stained by the AO/EB double staining (KeyGEN BioTECH, Nanjing, China) method to observe the morphological changes of the cells. HepG2 cells of logarithmic growth stage were inoculated into confocal six-well plates, and a volume of 2 mL of the cell suspension, adjusted to a concentration of 1 × 10^6 cells per milliliter, was introduced into each well. The cells were cultured in an aseptic constant temperature incubator for 24 h, and 3k·CH3I solution with concentrations of 0, 2, 4, and 8 μmol/L was added successively, and the culture continued for 48 h. The cellular specimens were rinsed with phosphate-buffered saline (PBS) on two occasions, after which 500 µL of staining buffer was introduced to the preparation, followed by storage in a light-protected environment for subsequent analysis. AO (5 µL) and EB (5 µL) staining solutions were added to the six-well plates successively, mixed and incubated at 4 °C for 20 min under light protection, then PBS was added and observed under a fluorescence microscope.

Test [2] relates to HepG2 cells. As to the kind of experiment: Intracellular ROS, DCFH-DA, flow cytometry. The class given is cell-based, human. To be noted: HepG2, 2, 4 and 8 μmol/L, 48 h, compared with the control group. The protocol:
Flow cytometry was additionally used to determine the effect of compound 3k·CH3I on ROS levels in HepG2 cells.
HepG2 cells were inoculated into a six-well plate with 2 mL cell suspension per well at a concentration of 1 × 10^6 cells/mL overnight in an incubation chamber maintained at 37 °C with a 5% CO2 atmosphere. The cells were treated with different concentrations of compound 3k·CH3I (0, 2, 4 and 8 μmol/L) and continued to be cultured for 48 h. The cells underwent a PBS rinse to cleanse them, subsequent digestion with a 0.25% trypsin solution to facilitate detachment, and subsequent centrifugation at 800 revolutions per minute (rpm) for 5 min to sediment the cells. The ensuing cell pellet was then re-suspended in 1 mL of nutrient-rich cell culture medium for further experimental procedures. Then, 5 μmol/L DCFH-DA solution was added to each well and they were incubated for 30 min away from light. After incubation, the cells were digested, the supernatant was centrifuged, and the PBS cell suspension was taken and placed in a flow cytometry to determine the experimental results.
Background: A flow cytometer gives signals particle by particle.

Test [3] has as its system HepG2 cells. As to the kind of experiment: Annexin V/PI apoptosis by flow cytometry. The class given is cell-based, human. To be noted: 48 h, control 3.03%.
Description: HepG2 cells with logarithmic growth stage were selected and inoculated into a designated confocal six-well plate with 2 mL cell suspension per well (1 × 10^6 cells/mL) and cultured in a sterile incubator for 24 h. […] The cellular preparations were initially rinsed with phosphate-buffered saline (PBS), followed by enzymatic detachment using a 0.25% trypsin solution. Post-collection, the cells underwent centrifugation at 800 revolutions per minute (rpm) for a duration of 5 min to pelletize. The resulting cell pellet was subsequently re-suspended in 1 mL of culture medium designed for cell propagation. The 100 µL cell suspension was transferred into a flow detection tube, with 5 µL AnnexinV added, cultured at room temperature away from light for 15 min, and centrifuged at 800 revolutions per minute (rpm) for a period of 5 min, after which the supernatant containing the staining solution was aspirated. Then, 100 µL of binding buffer for re-suspension and 5 µL of PI dye were added and the solution was mixed well and incubated at low temperature, avoiding light for 15 min. The results were measured by flow cytometry.
Test [4] deals with PI3K/AKT/mTOR pathway in HepG2 cells. Nature of the test: Western blotting of PI3K/AKT/mTOR-related proteins. The class given is cell-based, human. To be noted: HepG2, 2, 4 and 8 μmol/L, 48 h, relative to control. Here is the method: In order to better comprehend the effect of compound 3k·CH3I on the expression of proteins related to the mitochondrial apoptosis pathway, HepG2 cells were treated with 3k·CH3I at different concentrations (0, 2, 4, and 8 μmol/L), and Western blotting was used to determine the expression of related proteins, as shown in Figure 9.
HepG2 cells with logarithmic growth stage were selected to make a single-cell suspension and inoculated into a culture bottle with a cell density of 1 × 10^6 cells/mL. The cells were treated with different concentrations of compound 3k·CH3I (0, 2, 4 and 8 μmol/L) and cultured for 48 h. A mixture of 500 μL of phenylmethylsulfonyl fluoride (PMSF) and radio immunoprecipitation assay (RIPA) lysate was added to each well, and the protein content was determined using the bicinchoninic acid (BCA) assay and denatured at high temperature 30 min later. The protein samples were separated by polyacrylamide gel electrophoresis (SDS-PAGE) and transferred to a polyvinylidene fluoride (PVDF) membrane. The membrane was enclosed in 5% skim milk for 2 h, then specific antibodies of different proteins were added, incubated at 4 °C overnight, and secondary antibodies were added for 2 h. Finally, the gel imager was used for detection. […] The gray-scale of the bands was analyzed by gel imaging image analysis software and the relative protein content was calculated.
(In general: A western blot detects proteins with antibodies after separation by electrophoresis.)

The subject of test [5] is human liver cancer cell line HepG2. Nature of the test: MTT anti-proliferative assay, HepG2. The class given is cell-based.
Description: as §1, §2

Test [6] deals with HepG2 cells. Nature of the test: Mitochondrial membrane potential depolarization, JC-1. It counts as cell-based, human. To be noted: 48 h; for MMP depolarization: JC-1 flow cytometry, control 7.74%. The text has this: In order to explore the effect of compound 3k·CH3I on MMP, a JC-1 staining kit was used to detect the depolarization of the MMP of human hepatocellular carcinoma HepG2 cells treated with compound 3k·CH3I, as shown in Figure 8.
Flow cytometry was used to detect the intimal potential of HepG2 cells. […] It was concluded that the apoptosis of HepG2 cells was induced by compound 3k·CH3I and was associated with the mitochondrial-mediated endogenous pathway.
HepG2 cells with logarithmic growth stage were selected and inoculated into a designated confocal six-well plate with 2 mL cell suspension per well (1 × 10^6 cells/mL) and cultured in a sterile incubator for 24 h. The cells were treated with different concentrations of 3k·CH3I (0, 2, 4, 8 μmol/L) and continued to be cultured for 48 h. PBS cleans the cells, 0.25% trypsin digests the cells, and collects the cells. After the drug action time was over, 1 mL of pre-configured JC-1 staining solution was added and incubated for 30 min. After JC-1 incubation, the cells were observed by fluorescence microscope, the supernatant was separated, and the PBS cell suspension was taken and the experimental results were determined by flow cytometry.

These results are taken from article PMC11396318, “Lupeol-3-carbamate Derivatives: Synthesis and Biological Evaluation as Potential Antitumor Agents” (Molecules, 2024).

As for `C=C(C)C1CCC2(C)CCC3(C)C(CCC4C5(C)CCC(OC(=O)N6CCN(c7cc[n+](C)cc7)CC6)C(C)(C)C5CCC43C)C12` (stereo not shown) [Compound 3k·CH3I], the “anti-proliferative activity compared with lupeol” value with A549, HepG2, MCF-7 is listed as “more potent than that of lupeol”. Further, the “apoptotic morphological alterations (AO/EB staining)” value with HepG2 cells [1] is “bright red fluorescence due to the chromatin concentration and nuclear fragmentation”. For the same compound, the ROS levels result in the test on HepG2 cells [2] is given as “increased significantly”. Moreover, the “total percentage of apoptotic and necrotic cells” value was determined as 45.10% with HepG2 cells [3] (HepG2, 4 μmol/L) and 55.6% in the test on HepG2 cells [3] (HepG2, 8 μmol/L). The “expression of P-AKT, P-PI3K and P-mTOR” value in test [4] is “downregulation”. For the same compound, in test [4], the “expression of basal forms of AKT, PI3K and mTOR” value is “dose-dependent upregulation”. In addition, the “activity on HepG2 relative to lupeol” value in test [5] (HepG2, ratio of IC50) is “about 10 times”. Moreover, in test [5] (Homo sapiens, HepG2, MTT assay, 48 h of treatment, three independent experiments, read-out: IC50 (μM) HepG2), the IC50 came to 3.13 µM. The MMP depolarization in the test on HepG2 cells [6] (HepG2, 2 μmol/L) is 17.2%; in the test on HepG2 cells [6] (HepG2, 4 μmol/L) it was 27.3%; in the test with HepG2 cells [6] (HepG2, 8 μmol/L), 48.9%. Further, the “JC-1 fluorescence (microscopy)” value with HepG2 cells [6] (HepG2, different concentrations, compared with the control group) is “the red fluorescence gradually weakened until it eventually disappeared, and the green fluorescence gradually strengthened”.

One may read the IC50 as the concentration at which inhibition is half-maximal.
